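Following 48 hours of exposure in 96-well plates, responses at five concentrations were used to interpolate endpoints linearly. Here, GI50 denotes the concentration required for 50% inhibition of growth. TGI marks complete inhibition of growth.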
Tests used:
Test in all cases: inhibition of tumour cell growth, NCI panel, 48 h
DMS 273 small cell lung = system: DMS 273 small cell lung
SNB-78 CNS = system: SNB-78 CNS
DLD-1 colon = system: DLD-1 colon
KM20L2 colon = system: KM20L2 colon
HOP-18 NSCLC = system: HOP-18 NSCLC
XF 498 CNS = system: XF 498 CNS
DMS 114 small cell lung = system: DMS 114 small cell lung
M19-MEL melanoma = system: M19-MEL melanoma
LXFL 529 NSCLC = system: LXFL 529 NSCLC
PC-3 prostate = system: PC-3 prostate
MDA-N = system: MDA-N

| SMILES | TGI (DMS 273 small cell lung) | TGI (SNB-78 CNS) | TGI (DLD-1 colon) | TGI (KM20L2 colon) | TGI (HOP-18 NSCLC) | TGI (XF 498 CNS) | TGI (DMS 114 small cell lung) | TGI (M19-MEL melanoma) | TGI (LXFL 529 NSCLC) | GI50 (PC-3 prostate) | TGI (PC-3 prostate) | TGI (MDA-N) |
| --- | --- | --- | --- | --- | --- | --- | --- | --- | --- | --- | --- | --- |
| COc1cc(Cc2ccc3c(c2C#N)N(C)c2ccccc2S3)cc(OC)c1OC | > 100 µM | > 100 µM | > 100 µM | > 100 µM | > 100 µM | > 100 µM | > 100 µM | > 100 µM | > 100 µM | – | – | – |
| COc1cc2nc(N3CCC[C@@H](NC4=CC(=O)c5ccccc5C4=O)C3)nc(N)c2cc1OC | – | – | – | – | – | – | – | – | – | 1.91 µM | 4.16 µM | – |
| CCOC(=O)C(=O)Nc1cccc(C)c1C | > 100 µM | > 100 µM | > 100 µM | > 100 µM | > 100 µM | > 100 µM | > 100 µM | > 100 µM | > 100 µM | – | – | – |
| COc1cc(C2S/C(=C/c3ccccc3)C(=O)N2c2ccccc2Cl)cc(OC)c1OC (centres undefined) | – | – | – | – | – | – | – | – | – | – | 58.2 µM | 84.6 µM |
| BrC1=CN2C[n+]3cc(Br)c4ccccc4c3N=C2c2ccccc21 | – | – | – | – | – | – | – | – | – | – | 33.9 µM | 21.4 µM |

— PubChem BioAssay (NCI)
